How the values were obtained:
[1] = molecular target: T1, human PLK1 (Homo sapiens, UniProt P53350); assay: PLK1 in vitro enzymatic activity assay (phosphorylation of alpha casein by recombinant PLK1); assay type: biochemical; conditions: recombinant FLAG-tagged PLK1, alpha casein substrate, 500 nmol/L ATP, 40 min at room temperature; read-out: pIC50 (PLK1) (converted)
T1 construct: FLAG (DYKDDDDK) (N); made in house; host or cells: Sf21 insect cells, recombinant baculovirus (pFASTBAC1, Bac-to-Bac)
In short: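 Recombinant PLK1 from baculovirus-infected Sf21 cells (50 ng) phosphorylated 3 μg alpha casein for 40 min at room temperature in HEPES pH 7.5, Mg acetate, DTT buffer with 500 nmol/L ATP plus [γ-32P]ATP. TCA-precipitated phosphoprotein was filter-captured, washed, and counted by scintillation.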

T1 sequence (P53350 with tags, fused parts or gaps): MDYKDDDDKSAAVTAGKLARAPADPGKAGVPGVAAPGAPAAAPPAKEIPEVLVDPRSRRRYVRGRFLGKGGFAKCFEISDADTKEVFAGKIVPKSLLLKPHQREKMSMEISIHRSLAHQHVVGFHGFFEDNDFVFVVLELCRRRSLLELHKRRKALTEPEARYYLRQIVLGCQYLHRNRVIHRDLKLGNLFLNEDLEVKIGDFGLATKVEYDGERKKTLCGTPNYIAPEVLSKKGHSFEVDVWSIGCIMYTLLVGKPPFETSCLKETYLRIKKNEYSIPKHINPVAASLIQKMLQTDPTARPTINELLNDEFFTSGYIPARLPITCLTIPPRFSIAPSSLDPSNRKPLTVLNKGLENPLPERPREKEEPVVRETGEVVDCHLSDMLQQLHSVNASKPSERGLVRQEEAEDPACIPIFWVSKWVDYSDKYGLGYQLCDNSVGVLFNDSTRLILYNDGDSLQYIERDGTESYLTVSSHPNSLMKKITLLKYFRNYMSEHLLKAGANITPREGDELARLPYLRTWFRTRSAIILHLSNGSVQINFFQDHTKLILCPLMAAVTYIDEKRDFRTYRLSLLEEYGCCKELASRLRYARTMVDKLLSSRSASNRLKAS

SMILES	IC50 [1] [nM]	melting point [°C]
COc1cc(C(=O)NC2CN(C)C2)ccc1Nc1ncc2c(n1)N(C1CCCC1)CC(F)(F)C(=O)N2C [Compound 4, 4-(9-Cyclopentyl-7,7-difluoro-5-methyl-6-oxo-6,7,8,9-tetrahydro-5H-pyrimido[4,5-b][1,4]diazepin-2-ylamino)-3-methoxy-N-(1-methylazetidin-3-yl)benzamide]	≤ 2	157 to 162
COc1cc(C(=O)NN2CCN(C)CC2)ccc1Nc1ncc2c(n1)N(C1CCCC1)CC(F)(F)C(=O)N2C [Compound 6, 4-(9-cyclopentyl-7,7-difluoro-5-methyl-6-oxo-6,7,8,9-tetrahydro-5H-pyrimido[4,5-b][1,4]diazepin-2-ylamino)-3-methoxy-N-(4-methylpiperazin-1-yl)benzamide]		168 to 174
COc1cc(C(=O)N[C@@H]2CCN(C)C2)ccc1Nc1ncc2c(n1)N(C1CCCCC1)CC(F)(F)C(=O)N2C [Compound 39, (R)-4-(9-cyclohexyl-7,7-difluoro-5-methyl-6-oxo-6,7,8,9-tetrahydro-5H-pyrimido[4,5-b][1,4]diazepin-2-ylamino)-3-methoxy-N-(1-methylpyrrolidin-3-yl)benzamide]	> 2	98 to 99
COc1cc(C(=O)NC2CCC(N(C)C)CC2)ccc1Nc1ncc2c(n1)N(C1CCCCC1)CC(F)(F)C(=O)N2C (centres unmarked) [Compound 49, 4-(9-cyclohexyl-7,7-difluoro-5-methyl-6-oxo-6,7,8,9-tetrahydro-5H-pyrimido[4,5-b][1,4]diazepin-2-ylamino)-N-(4-(dimethylamino)cyclohexyl)-3-methoxybenzamide]	≤ 2	208 to 214
COc1cc(C(=O)NC2CCN(CC(F)(F)F)CC2)ccc1Nc1ncc2c(n1)N(C1CCCCC1)CC(F)(F)C(=O)N2C [Compound 50, 4-(9-cyclohexyl-7,7-difluoro-5-methyl-6-oxo-6,7,8,9-tetrahydro-5H-pyrimido[4,5-b][1,4]diazepin-2-ylamino)-3-methoxy-N-(1-(2,2,2-trifluoroethyl)piperidin-4-yl)benzamide]	≤ 2	213 to 215
COc1cc(C(=O)NN2CCN(C3CCCC3)CC2)ccc1Nc1ncc2c(n1)N(C1CCCCC1)CC(F)(F)C(=O)N2C [Compound 52, 4-(9-cyclohexyl-7,7-difluoro-5-methyl-6-oxo-6,7,8,9-tetrahydro-5H-pyrimido[4,5-b][1,4]diazepin-2-ylamino)-N-(4-cyclopentylpiperazin-1-yl)-3-methoxybenzamide]	> 2	98 to 99
COc1cc(C(=O)NC2CCN(C(=O)CN(C)C)CC2)ccc1Nc1ncc2c(n1)N(C1CCCCC1)CC(F)(F)C(=O)N2C [Compound 71, 4-(9-cyclohexyl-7,7-difluoro-5-methyl-6-oxo-6,7,8,9-tetrahydro-5H-pyrimido[4,5-b][1,4]diazepin-2-ylamino)-N-(1-(2-(dimethylamino)acetyl)piperidin-4-yl)-3-methoxybenzamide]	≤ 2	190 to 191
COc1cc(C(=O)N[C@H]2CCNC2)ccc1Nc1ncc2c(n1)N(C1CCCCC1)CC(F)(F)C(=O)N2C [Compound 72, (S)-4-(9-cyclohexyl-7,7-difluoro-5-methyl-6-oxo-6,7,8,9-tetrahydro-5H-pyrimido[4,5-b][1,4]diazepin-2-ylamino)-3-methoxy-N-(pyrrolidin-3-yl)benzamide]	≤ 2	258 to 263

Next, values leading:

IC50 [1] [nM]	melting point [°C]	SMILES
≤ 2	195 to 198	COc1cc(C(=O)N[C@@H]2CCNC2)ccc1Nc1ncc2c(n1)N(C1CCCCC1)CC(F)(F)C(=O)N2C [Compound 73, (R)-4-(9-cyclohexyl-7,7-difluoro-5-methyl-6-oxo-6,7,8,9-tetrahydro-5H-pyrimido[4,5-b][1,4]diazepin-2-ylamino)-3-methoxy-N-(pyrrolidin-3-yl)benzamide]
≤ 2	169 to 172	C=CC1(F)CN(C2CCCC2)c2nc(Nc3ccc(C(=O)N[C@@H]4CCCNC4)cc3OC)ncc2N(C)C1=O (stereo partly drawn) [Compound 102, 4-(9-cyclopentyl-7-fluoro-5-methyl-6-oxo-7-vinyl-6,7,8,9-tetrahydro-5H-pyrimido[4,5-b][1,4]diazepin-2-ylamino)-3-methoxy-N—((R)-piperidin-3-yl)benzamide]
≤ 2		COc1cc(C(=O)NC2CN(C(C)C)C2)c(F)cc1Nc1ncc2c(n1)N(C1CCCC1)CC(F)(F)C(=O)N2C [Compound 132, 4-(9-cyclopentyl-7,7-difluoro-5-methyl-6-oxo-6,7,8,9-tetrahydro-5H-pyrimido[4,5-b][1,4]diazepin-2-ylamino)-2-fluoro-N-(1-isopropylazetidin-3-yl)-5-methoxybenzamide]
≤ 2		COc1cc(C(=O)NC2CN(C3CCCC3)C2)c(F)cc1Nc1ncc2c(n1)N(C1CCCC1)CC(F)(F)C(=O)N2C [Compound 133, 4-(9-cyclopentyl-7,7-difluoro-5-methyl-6-oxo-6,7,8,9-tetrahydro-5H-pyrimido[4,5-b][1,4]diazepin-2-ylamino)-N-(1-cyclopentylazetidin-3-yl)-2-fluoro-5-methoxybenzamide]
> 2		COc1cc(C(=O)N2CCN(CC3CC3)CC2)ccc1Nc1ncc2c(n1)N(C1CCCC1)CC(F)(F)C(=O)N2C [Compound 134, 9-cyclopentyl-2-(4-(4-(cyclopropylmethyl)piperazine-1-carbonyl)-2-methoxyphenylamino)-7,7-difluoro-5-methyl-8,9-dihydro-5H-pyrimido[4,5-b][1,4]diazepin-6(7H)-one]
> 2		COc1cc(C(=O)N2CCN(CC3CC3)CC2)c(F)cc1Nc1ncc2c(n1)N(C1CCCC1)CC(F)(F)C(=O)N2C [Compound 135, 9-cyclopentyl-2-(4-(4-(cyclopropylmethyl)piperazine-1-carbonyl)-5-fluoro-2-methoxyphenylamino)-7,7-difluoro-5-methyl-8,9-dihydro-5H-pyrimido[4,5-b][1,4]diazepin-6(7H)-one]
> 2		CN1C(=O)C(F)(F)CN(C2CCCC2)c2nc(Nc3cccc4c3OC(F)(F)O4)ncc21 [Compound 136, 9-cyclopentyl-2-(2,2-difluorobenzo[d][1,3]dioxol-4-ylamino)-7,7-difluoro-5-methyl-8,9-dihydro-5H-pyrimido[4,5-b][1,4]diazepin-6(7H)-one]
> 2		COc1cc(CO)ccc1Nc1ncc2c(n1)N(C1CCCC1)CC(F)(F)CN2C [Compound 137, (4-(9-cyclopentyl-7,7-difluoro-5-methyl-6,7,8,9-tetrahydro-5H-pyrimido[4,5-b][1,4]diazepin-2-ylamino)-3-methoxyphenyl)methanol]
> 2		COc1cc(C(=O)NC2CCN(C)CC2)ccc1Nc1ncc2c(n1)N(C1CCCC1)CC(F)(F)CN2C [Compound 138, 4-(9-cyclopentyl-7,7-difluoro-5-methyl-6,7,8,9-tetrahydro-5H-pyrimido[4,5-b][1,4]diazepin-2-ylamino)-3-methoxy-N-(1-methylpiperidin-4-yl)benzamide]

Reference: patent US20110201818A1, “POLO-LIKE KINASE INHIBITORS” (TAKEDA PHARMACEUTICAL COMPANY LIMITED, priority 2007, published 2011)
